Data as given in patent US9371527B2, “Compositions and methods related to protein displacement therapy for myotonic distrophy” (University of Rochester, priority 2006, dated 2016).
“Also recorded” adds a separate entry of the source.

Tests used:
[1] = tested on: ClC-1 exon 7a; experiment: RT-PCR of ClC-1 exon 7a splicing after ClC-1 antisense morpholino, HSA^LR mice; format: in vivo; conditions: TA muscle; for comparison of exon 7a skipping between antisense morpholinos: 3 weeks, 20 μg total
Method: FIGS. 21A, 21B, 21C, and 21D show the effects of antisense morpholino targeting the 3′ splice junction of ClC-1 exon 7a on splicing and myotonia in HSA^LR transgenic mice. Antisense morpholino targeting the 3′ splice junction of ClC-1 exon 7a was injected into tibialis anterior muscle of HSA^LR mice under general anesthesia (sequence 5′-[…]-3′ (SEQ ID NO: 4)). The contralateral muscle was injected with morpholino having the inverted sequence (5′-[…]-3′(SEQ ID NO: 5)). Uptake into muscle fibers was enhanced by in vivo electroporation. The determination of which side received the antisense morpholino was randomized. 21 days later, myotonia was evaluated by electromyography and muscle was harvested for RT-PCR analysis of ClC-1 alternative splicing. Electromyography was blinded to the randomization.
HSA^LR (Mankodi, A., et al. (2000) Science 289:1769-1773) or Mbnl1^ΔE3/ΔE3 mice (Kanadia, R. N., et al. (2003) Science 302:1978-1980) were anesthetized by intraperitoneal injection of 100 mg/kg ketamine, 10 mg/kg xylazine, and 3 mg/kg acepromazine. TA muscle was pretreated by intramuscular injection of bovine hyaluronidase (15 μl, 0.4 U/μl) (Sigma) (McMahon, J. M., et al. (2001) Gene Ther 8:1264-1270). Two hours later, 10 or 20 μg of morpholino in a total volume of 20 μl phosphate buffered saline (PBS) was injected using a 30-gauge needle. TA muscle was then electroporated using electrodes placed parallel to the long axis of the muscle. Electroporation parameters were 100 V/cm, 10 pulses at 1 Hz, and 20 ms duration per pulse. Antisense or control morpholino with inverted sequence was injected into TA muscles of opposite limbs. The determination of which TA received antisense morpholino was randomized, and investigators remained blinded to this assignment until EMG analyses were completed. Other analyses were performed without blinding. For experiments to determine the distribution of injected oligos, the antisense morpholino was labeled with carboxyfluorescein and cryosections of muscle (10 μM) were examined by fluorescence microscopy, with or without fixation in 4% paraformaldehyde. Some sections were co-labeled with TRITC-wheat germ agglutinin (Parsons, S. A., et al. (2003) Mol Cell Biol 23:4331-4343) (50 μg/ml in PBS; Sigma) and 4′,6-diamidino-2-phenylindole (DAPI) to highlight the surface membranes and nuclei of muscle fibers.
(§1) Mice were sacrificed three or eight weeks after morpholino injection. TA muscles were removed and frozen in liquid nitrogen. Total RNA was isolated with TriReagent (Molecular Research Center). cDNA synthesis was primed with oligo dT as described previously (Mankodi, A., et al. (2002) Mol Cell 10:35-44). Assays for alternative splicing of ClC-1 and Titin were described previously (Mankodi, A., et al. (2002) Mol Cell 10:35-44; Lin, X., et al. (2006) Hum Mol Genet 15:2087-2097). Primer sequences were
(§2) RT-PCR products (22 cycles) were separated on agarose gels, stained with SYBR green II, and scanned on a laser fluorimager (Molecular Dynamics). Band intensity was quantified using ImageQuant software. Total levels of ClC-1 mRNA were determined by quantitative real-time RT-PCR (Taqman, Applied Biosystems) relative to housekeeping gene RNA polymerase II transcription factor IIB.

[2] = tested on: Titin, ZASP, Serca1 alternative splicing; experiment: RT-PCR of alternative splicing of other genes misregulated in DM1 after ClC-1 antisense morpholino; format: in vivo, HSA^LR mice; conditions: HSA^LR TA muscle
Excerpt: HSA^LR and WT mice have the same (FVB) inbred strain background. […] FIGS. 25D and 25E show the percentage of ClC-1 splice products that include exon 7a is shown at 3 (D) and 8 (E) weeks following morpholino injection. Mean±s.d.; n=3 per group; **P<0.001; *P=0.035 antisense- versus invert-treated controls; t-test. […] ClC-1 mRNA level is expressed in arbitrary units relative to housekeeping gene RNA polymerase II transcription factor IIB. Mean±s.d.; n=3 per group; *P=0.06 for antisense vs invert-treated control; t-test.
as §1, §2

[3] = tested on: ClC-1 protein; experiment: ClC-1 immunofluorescence after ClC-1 antisense morpholino, HSA^LR TA muscle; format: in vivo, HSA^LR mice; conditions: 3 weeks after treatment, vs invert-treated control
Method: The morpholino was complementary to the 3′ splice site of ClC-1 pre-mRNA. Muscle fibers are outlined by wheat germ agglutinin (wga) and nuclei are highlighted by DAPI. FIGS. 24D and 24 E show brightfield (D) and fluorescence (E) images of a single FDB fiber showing preferential nuclear localization of the antisense morpholino (post injection day 5). […] Bars=20 μM.
(§3) Frozen transverse sections of TA muscle (10 μM) were stained with affinity-purified rabbit polyclonal anti-ClC-1 antibody (1:50; Alpha Diagnostic International) as previously described (Kanadia, R. N., et al. (2006) Proc Natl Acad Sci USA 103:11748-11753). Muscle sections from ClC-1 null mice and WT FVB mice served as negative and positive controls on each slide. Z-plane stacks consisting of 8 images separated by 0.25 μM were captured and deconvolved using Autoquant v9.3 software (Autoquant Imaging). Maximum-projection images were obtained using Metavue software (Universal Imaging Corporation). Exposure time and thresholding were identical for all comparisons of antisense vs. invert controls.

[4] = tested on: nuclear foci containing CUG^exp RNA and MBNL1 protein; experiment: FISH and immunofluorescence of ribonuclear inclusions after ClC-1 antisense morpholino; format: in vivo, HSA^LR mice; conditions: TA muscle, 3 weeks after injection; listed as antisense morpholino
[5] = tested on: ClC-1 protein; experiment: ClC-1 immunofluorescence, Mbnl1^ΔE3/ΔE3 mice; format: in vivo; conditions: TA muscle, 3 weeks; listed as antisense morpholino
Method: (§4) FIGS. 27A, 27B, 27C, 27D, and 27E show antisense morpholino represses exon 7a inclusion, restores ClC-1 protein expression, and rescues myotonia in Mbnl1^ΔE3/ΔE3 mice. […] Bar=20 μM. […] Mean±s.d.; n=3 per group; **P<0.0001 antisense- versus invert-treated control; ANOVA.
as §3

[6] = tested on: Mbnl1^ΔE3/ΔE3 mice; experiment: Electromyography of myotonia, Mbnl1^ΔE3/ΔE3 mice; format: in vivo; conditions: TA muscle, 3 weeks
Method: as §4
EMG was performed under general anesthesia as described previously (Kanadia, R. N., et al. (2003) Science 302:1978-1980). Images and video recordings of electromyographic myotonia in HSA^LR and Mbnl1^ΔE3/ΔE3 mice are shown in previous reports (Kanadia, R. N., et al. (2003) Science 302:1978-1980; Mankodi, A., et al. (2000) Science 289:1769-1773). A minimum of 15 needle insertions were performed for each muscle examined Myotonic discharges were graded on a 4 point scale: 0, no myotonia; 1, occasional myotonic discharge in <50% of needle insertions; 2, myotonic discharge in >50% of needle insertions; 3: myotonic discharge with nearly every insertion.

Substance | ClC-1 exon 7a inclusion ([1]; 3 weeks (21 days) after single injection + electroporation, listed as antisense morpholino) | comparison of exon 7a skipping between antisense morpholinos [1] | comparison of exon 7a skipping between antisense morpholinos ([1]; listed as AON targeting the 3′ splice site) | ClC-1 exon 7a inclusion ([1]; 8 weeks after injection, 20 μg) | ClC-1 exon 7a inclusion ([1]; 8 weeks after injection, 20 μg, listed as antisense morpholino) | fraction of splice products encoding functional ClC-1 channels (band 1) ([1]; 21 days) | alternative splicing of Serca1 [2] | alternative splicing of ZASP [2] | alternative splicing of Titin m-line exon 5 ([2]; listed as ClC-1 antisense morpholino) | alternative splicing of Titin m-line exon 5 ([2]; listed as antisense morpholino) | sarcolemmal ClC-1 protein ([3]; listed as antisense morpholino) | sarcolemmal ClC-1 protein ([3]; listed as morpholino AON) | formation of ribonuclear inclusions (CUG^exp RNA and MBNL1 foci) [4] | ClC-1 protein at the sarcolemma (immunofluorescence) [5] | myotonia (EMG) ([6]; listed as antisense morpholino) | ClC-1 exon 7a inclusion ([1]; 3 weeks (21 days) after single injection + electroporation) | myotonia (EMG) [6]
antisense 1: morpholino 5′-CCAGGCACGGTCTGCAACAGAGAAG-3′ targeting the 3′ splice site of ClC-1 exon 7a (all phosphorodiamidate morpholino (PMO)) | significant reduction of exon 7a inclusion; also recorded: suppressed to wild type (WT) levels | higher level of exon 7a skipping | more effective than targeting the 5′ splice site alone | remained partially suppressed | partial exclusion of exon 7a | increases the fraction of splice products encoding functional ClC-1 channels | nor did it correct the alternative splicing | nor did it correct the alternative splicing | did not correct the misregulated alternative splicing of Titin m-line exon 5 | nor did it correct the alternative splicing | increase of sarcolemmal ClC-1 protein | increased the level of ClC-1 protein in the sarcolemma | did not affect the formation of nuclear foci; also recorded: no effect on the formation of ribonuclear inclusions | increased the expression of ClC-1 protein at the sarcolemma | reduced the myotonia | – | –
control morpholino: control morpholino 5′-GAAGAGACAACGTCTGGCACGGACC-3′, the 5′-3′ invert of the 3′ splice site blocker (all phosphorodiamidate morpholino (PMO)) [reference compound] | – | – | – | – | – | – | – | – | – | – | – | – | – | – | – | no effect on ClC-1 splicing; also recorded: not different from untreated HSA^LR muscle | not in muscle treated with invert control
